The record followed here is US12240853B2, “Compounds useful in HIV therapy” (GlaxoSmithKline Intellectual Property (No.2) Limited, priority 2019, dated 2025).

A short description of the series: Example 18 rat PK studies (SC and IM). In kind it is in vivo, Wistar Han rats. The note with it: single SC or IM injection, 20 mg parent/kg. The text has this: Example 18 referenced herein was made in accordance with Synthesis B. A total of seven naïve male Wistar Han rats, 250-275 g, were received from the supplier equipped with a surgically-implanted jugular vein catheter (JVC) to facilitate blood sample collection during the first several days of the study. Following an acclimation period, the animals were assigned to the study based on acceptable health as determined by a staff veterinarian and catheter patency. Six animals were placed into two groups of 3 rats per group. Fasting of the animals before or after dosing was not required.
On Day 1 each animal in Group 1 received a single intrascapular subcutaneous injection of prepared test article at a target dose level of 20 mg parent/kg and at a dose volume of 0.49 mL/kg. Each animal in Group 2 received a single intramuscular injection of prepared test article into a thigh muscle at a target dose level of 20 mg parent/kg and at a dose volume of 0.49 mL/kg. The animals were manually restrained for dosing and were not sedated. […]
Interim blood samples for PK (Groups 1A and 2A) were collected from the jugular vein catheter or by venipuncture of a jugular vein if the catheter was not patent. […] The PK plasma samples were analyzed every 1-2 weeks by the Testing Facility to determine the concentration of prodrug and parent using an LC-MS/MS Research Grade Assay (RGA-1) with sensitivity to 0.1 ng/mL. […]

For `C#C[C@]1(COC(=O)CCCCCCCCC)O[C@@H](n2cnc3c(N)nc(F)nc32)C[C@@H]1OC(=O)CCCCCCCCC` [Example 18, (2R,3S,5R)-5-(6-amino-2-fluoro-9H-purin-9-yl)-2-((decanoyloxy)methyl)-2-ethynyltetrahydrofuran-3-yl Decanoate], the “Clinical observations and dose site reactions” value was “All animals appeared normal at the time of each observation and no dose site reactions were observed”.
